Values quoted from earlier work in patent publication US20260232560A1, “SKIN HEALTH BENEFITTING COMPOSITIONS” (priority 2023, published 2026).

Legend:
[1] = poor solubility and permeability
[2] = background statement

| BCS class [1] | SMILES | antioxidant power relative to grape seed extract [2] |
| --- | --- | --- |
| BCS Class IV | O=c1oc2c(O)c(O)cc3c(=O)oc4c(O)c(O)cc1c4c23 [Ellagic acid] |  |
|  | CCCC\C=C/C=C/C=C\CCCCCCCC(=O)O [Punicic acid] | approximately 10 times |
